Laboratory results from patent publication US9920057B2, “Substituted pyrazino[1′,2′:1 ,6]pyrido[3,4-b]indoles as phosphodiesterase type 5 inhibitors” (Chongqing University of Arts and Sciences, priority 2015, dated 2018).
pIC50: −log10 of the molar value. Values joined by “and” are separate entries in the source; they are usually repeats but may differ in a detail not shown here. Equal values may be shown once. Read-outs that look alike come from different tables or passages of the source.

Legend:
PDE2A = molecular target: T1, PDE2A (Homo sapiens, UniProt O00408); experiment: Inhibition of PDE activity (assay kit); assay type: biochemical
T1 construct: purchased
T1 sequence (O00408 whole entry): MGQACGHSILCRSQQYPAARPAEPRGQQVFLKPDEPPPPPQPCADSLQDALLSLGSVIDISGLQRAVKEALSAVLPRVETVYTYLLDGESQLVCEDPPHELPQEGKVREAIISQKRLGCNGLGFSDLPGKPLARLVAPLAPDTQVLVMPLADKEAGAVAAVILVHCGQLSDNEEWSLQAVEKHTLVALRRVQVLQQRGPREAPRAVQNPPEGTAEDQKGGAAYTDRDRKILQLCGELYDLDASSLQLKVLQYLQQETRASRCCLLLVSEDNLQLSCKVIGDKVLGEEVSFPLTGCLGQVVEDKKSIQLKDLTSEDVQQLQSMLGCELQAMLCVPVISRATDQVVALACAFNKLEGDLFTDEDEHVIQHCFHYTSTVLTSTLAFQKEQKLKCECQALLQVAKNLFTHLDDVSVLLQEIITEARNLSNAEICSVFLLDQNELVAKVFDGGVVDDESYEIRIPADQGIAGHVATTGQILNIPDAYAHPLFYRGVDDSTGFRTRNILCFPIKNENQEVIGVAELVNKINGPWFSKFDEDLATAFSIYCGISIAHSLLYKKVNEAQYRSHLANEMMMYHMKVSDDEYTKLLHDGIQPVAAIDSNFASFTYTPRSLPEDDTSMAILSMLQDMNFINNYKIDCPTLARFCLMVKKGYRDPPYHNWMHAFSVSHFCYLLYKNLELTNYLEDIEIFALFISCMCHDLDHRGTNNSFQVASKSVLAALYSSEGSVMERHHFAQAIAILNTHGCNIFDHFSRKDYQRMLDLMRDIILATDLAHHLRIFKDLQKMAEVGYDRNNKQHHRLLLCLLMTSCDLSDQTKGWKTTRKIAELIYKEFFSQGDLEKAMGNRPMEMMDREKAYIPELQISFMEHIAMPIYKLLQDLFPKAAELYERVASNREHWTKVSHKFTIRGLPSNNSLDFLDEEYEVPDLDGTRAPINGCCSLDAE
Protocol: (§1) i. Supplement 99 μl assay buffer per well, then add 1 μl compound in DMSO dilution to wells of V96 MicroWell Plates and uniformly mix;
(§2) ii. Add 5 μl compound in assay buffer dilution to each well of 96-well microplate;
(§3) the final concentration of compound as below:
(§4) The inhibitory potential of test compounds on several types of phosphodiesterase (PDE) activity is determined according to the protocol of assay kit.

PDE3A = molecular target: T2, PDE3A (Homo sapiens, UniProt Q14432); experiment: Inhibition of PDE activity (assay kit); assay type: biochemical
T2 construct: purchased
T2 sequence (Q14432 whole entry): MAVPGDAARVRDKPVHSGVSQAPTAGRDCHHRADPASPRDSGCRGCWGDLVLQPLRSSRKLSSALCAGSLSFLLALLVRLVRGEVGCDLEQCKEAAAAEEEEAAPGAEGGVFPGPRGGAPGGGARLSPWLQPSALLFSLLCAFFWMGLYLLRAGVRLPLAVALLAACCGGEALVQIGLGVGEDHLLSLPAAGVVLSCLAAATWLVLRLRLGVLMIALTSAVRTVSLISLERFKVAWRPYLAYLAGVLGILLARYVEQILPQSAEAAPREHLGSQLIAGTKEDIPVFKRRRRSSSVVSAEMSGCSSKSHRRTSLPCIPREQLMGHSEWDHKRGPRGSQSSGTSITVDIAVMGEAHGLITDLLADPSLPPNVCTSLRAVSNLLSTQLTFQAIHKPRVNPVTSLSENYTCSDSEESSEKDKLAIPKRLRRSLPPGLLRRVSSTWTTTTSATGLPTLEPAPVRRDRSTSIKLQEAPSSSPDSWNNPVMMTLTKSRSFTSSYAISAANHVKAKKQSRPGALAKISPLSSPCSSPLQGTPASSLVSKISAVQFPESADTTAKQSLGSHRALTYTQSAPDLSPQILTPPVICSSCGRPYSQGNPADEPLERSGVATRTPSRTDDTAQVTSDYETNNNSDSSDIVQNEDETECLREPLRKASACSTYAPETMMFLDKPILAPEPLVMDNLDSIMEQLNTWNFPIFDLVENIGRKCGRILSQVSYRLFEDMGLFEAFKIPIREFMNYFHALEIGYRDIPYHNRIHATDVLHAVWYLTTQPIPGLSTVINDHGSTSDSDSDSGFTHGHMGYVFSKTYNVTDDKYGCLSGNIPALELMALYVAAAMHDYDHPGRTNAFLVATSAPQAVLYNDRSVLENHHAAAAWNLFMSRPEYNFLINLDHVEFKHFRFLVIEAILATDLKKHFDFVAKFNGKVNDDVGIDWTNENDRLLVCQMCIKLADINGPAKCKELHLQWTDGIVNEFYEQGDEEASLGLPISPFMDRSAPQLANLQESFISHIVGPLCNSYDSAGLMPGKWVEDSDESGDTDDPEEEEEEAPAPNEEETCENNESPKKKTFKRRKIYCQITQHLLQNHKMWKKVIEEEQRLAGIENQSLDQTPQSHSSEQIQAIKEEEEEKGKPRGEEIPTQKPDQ
Protocol: as §1, §2, §3, §4

PDE1A = molecular target: T3, PDE1A (Homo sapiens, UniProt P54750); experiment: Inhibition of PDE activity (assay kit); assay type: biochemical
T3 construct: purchased
T3 sequence (P54750 whole entry): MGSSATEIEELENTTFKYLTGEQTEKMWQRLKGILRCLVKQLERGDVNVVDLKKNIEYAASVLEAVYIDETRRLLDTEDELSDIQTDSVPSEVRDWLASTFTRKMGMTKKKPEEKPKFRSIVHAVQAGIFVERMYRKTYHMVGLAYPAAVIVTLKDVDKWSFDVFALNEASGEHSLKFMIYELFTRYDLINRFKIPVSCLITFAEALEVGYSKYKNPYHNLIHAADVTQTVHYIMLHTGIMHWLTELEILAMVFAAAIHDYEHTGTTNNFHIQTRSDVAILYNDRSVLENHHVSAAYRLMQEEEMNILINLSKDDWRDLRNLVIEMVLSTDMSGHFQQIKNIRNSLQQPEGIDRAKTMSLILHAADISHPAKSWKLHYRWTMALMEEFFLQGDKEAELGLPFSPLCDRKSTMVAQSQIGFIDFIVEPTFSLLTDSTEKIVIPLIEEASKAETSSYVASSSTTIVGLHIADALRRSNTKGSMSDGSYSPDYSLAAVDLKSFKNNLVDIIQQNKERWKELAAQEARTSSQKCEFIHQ
Protocol: as §1, §2, §3, §4

PDE7A = molecular target: T4, PDE7A (Homo sapiens, UniProt Q13946); experiment: Inhibition of PDE activity (assay kit); assay type: biochemical
T4 construct: purchased
T4 sequence (Q13946 whole entry): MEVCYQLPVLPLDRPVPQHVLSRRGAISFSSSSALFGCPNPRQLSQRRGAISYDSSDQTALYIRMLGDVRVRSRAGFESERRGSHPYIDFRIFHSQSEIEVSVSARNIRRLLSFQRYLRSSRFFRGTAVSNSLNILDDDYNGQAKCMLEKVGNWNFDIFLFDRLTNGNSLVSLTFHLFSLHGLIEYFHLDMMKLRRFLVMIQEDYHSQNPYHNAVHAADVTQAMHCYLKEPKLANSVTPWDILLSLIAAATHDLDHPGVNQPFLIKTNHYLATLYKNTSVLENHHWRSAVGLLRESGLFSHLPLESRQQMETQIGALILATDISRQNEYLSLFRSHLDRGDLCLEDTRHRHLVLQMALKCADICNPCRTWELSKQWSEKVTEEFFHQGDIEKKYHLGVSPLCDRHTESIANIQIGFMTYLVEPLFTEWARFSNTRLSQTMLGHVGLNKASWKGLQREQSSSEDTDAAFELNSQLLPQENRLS
Protocol: as §1, §2, §3, §4

[1] = background statement; cited from earlier work
[2] = Study on pharmacokinetics in rats, oral administration; assay type: in vivo, SD rat; settings: oral 10.0 mg · kg^−1
Protocol: Sample Preparation Method: One step protein precipitation
Precipitant: ACN, with concentration of Verapamil (5.00 ng·mL-1)
Calibration Curve and QC samples Preparation: 5.00 μL each of the calibration or QC working solution and 45.0 μL of blank plasma were transferred into a 1.5-mL microcentrifuge tube. Final standard curve concentration levels were 1.00, 2.50, 5.00, 10.0, 50.0, 100, 500 and 1000 ng·mL-1. The QC concentration levels were 2.50 or 5.00, 50.0 and 800 ng·mL-1. Dilution QC was 5000 ng·mL-1.
Plasma Samples Preparation: Aliquots of 10.0 μL of real samples, calibration curve samples and QC samples were supplemented with 100 μL of precipitant. After vortexed for 3.00 min and centrifuged at 12000 rpm for 5.00 min, the supernatant 10 μL was injected for LC-MS/MS analysis.
Number of Rats/Group: 3/group
Administration Route: oral administration
Blood Collection Time: 0 min, 15 min, 30 min, 1 h, 2 h, 4 h, 6 h, 8 h, 24 h

normal rat = experiment: Erectile function of normal rat: blood pressure, intracavernous pressure and detumescence time on cavernous nerve stimulation; assay type: in vivo; settings: reference group (Calais), dose not stated
Protocol: Rats were anesthetized with 2% pentobarbital […], then incision was made in the right side of neck, a PE-50 silicon tube connected with a pressure transducer was inserted into the carotid artery, to record the change of the blood pressure.
The erectile activity was induced by a bipolar stainless-steel, stimulus parameters at a pulse width of […], stimulation frequency of 7.98 Hz, current of 3 mA, stimulation duration of 40 s, and then record the intracavernous pressure (ICP).
Assessment of erectile function: ICP, BP, change of ICP and detumescence time were monitored though electric cavernous nerve stimulation at 2, 6 and 24 hours post dosing. Erectile function was evaluated by change of ICP and detumescence time.

PDE5A = molecular target: T5, PDE5A (Homo sapiens, UniProt O76074); experiment: Inhibition against PDE5 (Homogenous Time Resolve Fluoresce); assay type: biochemical; settings: HTF
T5 construct: purchased SIGMA-ALDRICH E904
Protocol: Method: IC50 of an inhibition effect on PDE5A (E904, SIGMA-ALDRICH) of test compounds was tested by using Sildenafil (S1431, selleck) as a positive control sample and the method of Homogenous Time Resolve Fluoresce, HTF (Cat. No. 62GM2PEB, Cisbio.)

[3] = SD, rat, plasma, po, 10 mg/kg, Mean of 3 rats
[4] = SD, rat, plasma, po, 10 mg/kg, Mean of 3 rats, read-out: AUC0-inf
[5] = SD, rat, plasma, po, 10 mg/kg, Mean of 3 rats, read-out: AUC0-t
[6] = SD, rat, plasma, po, 10 mg/kg, Mean of 3 rats, read-out: Cmax
[7] = SD, rat, plasma, po, 10 mg/kg, individual rats
[8] = SD, rat, plasma, po, 10 mg/kg, individual rats, read-out: AUC0-inf
[9] = SD, rat, plasma, po, 10 mg/kg, individual rats, read-out: AUC0-t
[10] = SD, rat, plasma, individual rats

CN1CC(=O)N2[C@H](c3ccc4c(c3)OCO4)c3[nH]c4ccccc4c3C[C@@H]2C1=O [Cialis]
pIC50 (PDE2A): < 5.00
pIC50 (PDE3A): < 5.00
pIC50 (PDE1A): < 5.00
pIC50 (PDE7A): < 5.00
half-life in body [1]: 24 to 36 h
AUMC0-inf ([2]; Mean of 3 rats): 54240 h · h · ng · mL^−1
AUMC0-t ([2]; Mean of 3 rats): 52702 h · h · ng · mL^−1
Kel ([2]; Mean of 3 rats): 0.248 h⁻¹
MRTPO ([2]; Mean of 3 rats): 6.07 h
half-life [2, 3]: 2.99 h
AUC0-inf [2, 4]: 8860 ng·h/mL
AUC0-t [2, 5]: 8810 ng·h/mL
Cmax [2, 6]: 926 ng/mL
half-life [2, 7]: 3.46 h
AUC0-inf [2, 8]: 8810 ng·h/mL
AUC0-t [2, 9]: 8720 ng·h/mL
Tmax [2, 10]: 4 h
AUC0-inf ([2]; individual rats): 6051 ng·h/mL and 11729 ng·h/mL
AUC0-t ([2]; individual rats): 5993 ng·h/mL and 11723 ng·h/mL
AUMC0-inf ([2]; individual rats): 56364 h · h · ng · mL^−1 and 34440 h · h · ng · mL^−1 and 71915 h · h · ng · mL^−1
AUMC0-t ([2]; individual rats): 53611 h · h · ng · mL^−1 and 32747 h · h · ng · mL^−1 and 71748 h · h · ng · mL^−1
Cmax ([2]; individual rats): 747 ng/mL and 676 ng/mL and 1356 ng/mL
Kel ([2]; individual rats): 0.200 h⁻¹ and 0.197 h⁻¹ and 0.346 h⁻¹
MRTPO ([2]; individual rats): 6.40 h and 5.69 h and 6.13 h
t1/2 ([2]; individual rats): 3.51 h and 2.00 h
BP after stimulation (normal rat; 2 hours after dosing): 64.14 ± 9.86 mmHg
BP before stimulation (normal rat; 2 hours after dosing): 100.98 ± 4.48 mmHg
Change of BP (normal rat; 2 hours after dosing): 36.85 ± 7.34 mmHg
Change of ICP (normal rat; 2 hours after dosing): 31.82 ± 7.63 mmHg
Detumescence Time (normal rat; 2 hours after dosing): 40.50 ± 21.14 s
ICP after stimulation (normal rat; 2 hours after dosing): 39.19 ± 8.58 mmHg
ICP before stimulation (normal rat; 2 hours after dosing): 7.38 ± 1.75 mmHg
BP after stimulation (normal rat; 6 hours after dosing): 58.14 ± 14.30 mmHg
BP before stimulation (normal rat; 6 hours after dosing): 91.20 ± 28.48 mmHg
Change of BP (normal rat; 6 hours after dosing): 33.07 ± 17.13 mmHg
Change of ICP (normal rat; 6 hours after dosing): 34.15 ± 6.99 mmHg
Detumescence Time (normal rat; 6 hours after dosing): 44.25 ± 13.35 s
ICP after stimulation (normal rat; 6 hours after dosing): 41.76 ± 6.49 mmHg
ICP before stimulation (normal rat; 6 hours after dosing): 7.61 ± 1.53 mmHg
BP after stimulation (normal rat; 24 hours after dosing): 78.00 ± 2.68 mmHg
Change of BP (normal rat; 24 hours after dosing): 34.26 ± 7.18 mmHg
Change of ICP (normal rat; 24 hours after dosing): 35.38 ± 4.55 mmHg
Detumescence Time (normal rat; 24 hours after dosing): 41.25 ± 10.34 s
ICP after stimulation (normal rat; 24 hours after dosing): 43.01 ± 6.19 mmHg
ICP before stimulation (normal rat; 24 hours after dosing): 7.63 ± 4.03 mmHg

NN1CC(=O)N2[C@H](c3ccc4c(c3)OCO4)c3[nH]c4ccccc4c3C[C@@H]2C1=O [DDCI02]
AUMC0-inf ([2]; Mean of 3 rats): 69719 h · h · ng · mL^−1
AUMC0-t ([2]; Mean of 3 rats): 63864 h · h · ng · mL^−1
Kel ([2]; Mean of 3 rats): 0.193 h⁻¹
MRTPO ([2]; Mean of 3 rats): 4.19 h
half-life [2, 3]: 3.73 h
AUC0-inf [2, 4]: 16300 ng·h/mL
AUC0-t [2, 5]: 16100 ng·h/mL
Cmax [2, 6]: 4680 ng/mL
half-life [2, 7]: 4.85 h
AUC0-inf [2, 8]: 18600 ng·h/mL
AUC0-t [2, 9]: 18100 ng·h/mL
Cmax ([2]; SD, rat, plasma, po, 10 mg/kg, individual rats, read-out: Cmax): 4580 ng/mL
Tmax [2, 10]: 0.25 h
AUC0-inf ([2]; individual rats): 15617 ng·h/mL and 14794 ng·h/mL
AUC0-t ([2]; individual rats): 15563 ng·h/mL and 14723 ng·h/mL
AUMC0-inf ([2]; individual rats): 99393 h · h · ng · mL^−1 and 57718 h · h · ng · mL^−1 and 52047 h · h · ng · mL^−1
AUMC0-t ([2]; individual rats): 85428 h · h · ng · mL^−1 and 56156 h · h · ng · mL^−1 and 50008 h · h · ng · mL^−1
Cmax ([2]; individual rats): 4288 ng/mL and 5171 ng/mL
Kel ([2]; individual rats): 0.143 h⁻¹ and 0.221 h⁻¹ and 0.216 h⁻¹
MRTPO ([2]; individual rats): 5.35 h and 3.70 h and 3.52 h
t1/2 ([2]; individual rats): 3.14 h and 3.21 h
pIC50 (PDE5A): 6.25
